{"source": "patent US6133249A", "about": "“Phospholipid and propylene glycol based lubricant” (MacNaught Medical Pty Limited, priority 1995, dated 2000)", "key": {"[1]": {"system": "phospholipases", "conditions": "cited from earlier work"}, "[2]": {"conditions": "cited from earlier work"}, "[3]": {"test": "Inflammatory reaction of horse joints (protein, ALP, leucocyte count, specific gravity)", "assay_type": "in vivo", "conditions": "1 ml PG only, 6 horses", "method": "5. Having established the extreme lubricity imparted by exogenous DPPC and the fact that it is likely to remain in the joint for long enough to be worthwhile clinically, the next step was to look for any inflammatory reaction.\nThe following parameters were used as indices of inflammatory reaction:\n2. Alkaline phosphatase (ALP)\n6. In the next series of trials, the joints of 6 horses were injected with 1 ml of PG only to see whether the solvent was the major cause of the inflammatory reaction.\n7. The main series of trials was then devised to compare the inflammatory reaction of the radiocarpal joint to the product (100 mg DPPC in 1 mlPG) with the reactions to other agents commonly injected into that joint in the normal course of clinical practice.\nThe agents selected for comparison were\n1. A standard clinical (1 ml) dose of prilocaine--a local anaesthetic.\n2. A standard clinical dose of hyaluromic acid (Hyartil)™ (1 ml) a joint lubricant."}, "[4]": {"test": "Retention of radio-labelled DPPC in the joint", "assay_type": "in vivo, horse", "method": "4. More quantitative tests were undertaken in a further 4 horses administered radio-labelled 50 mg DPPC in 1 ml. The solution was injected into one contraleteral joint and the horse was sacrificed 2-10 days later when the cartilage was excised and synovial fluid collected for radio-assay."}, "[5]": {"test": "Miscibility and physical state of phospholipid in propylene glycol", "assay_type": "physicochemical", "conditions": "all concentrations / any proportion"}}, "data": [{"molecule": "CCCCCCCCCCCCCCCC(=O)OC[C@H](COP(=O)([O-])OCC[N+](C)(C)C)OC(=O)CCCCCCCCCCCCCCC", "note": "[L-enantiomeric alpha-DPPC, alpha-dipalmitoyl phosphatidylcholine]", "values": [{"measurement": "metabolism by endogenous phospholipases", "setting": "[1]", "value": "capable of metabolising"}]}, {"molecule": "CC(O)CO", "note": "(centres unmarked) [PG, propylene glycol]", "values": [{"measurement": "inflammatory reaction relative to hyaluronic acid", "setting": "[2]; mammalian joints and other articulations", "value": "somewhat less severe"}, {"measurement": "solvent as the major cause of the inflammatory reaction", "setting": "[3]", "value": "This proved to be the case"}]}, {"molecule": "hyaluronic acid", "values": [{"measurement": "inflammatory reaction in animal tissues", "setting": "[2]; in vivo", "value": "appreciable inflammatory reaction"}]}, {"molecule": "CCCCCCCCCCCCCCCC(=O)OC[C@H](COP(=O)([O-])OCC[N+](C)(C)C)OC(=O)CCCCCCCCCCCCCCC", "note": "[DPPC, Dipalmitoyl phosphatidylcholine]", "values": [{"measurement": "retention of DPPC in the joint", "setting": "[4]; conclusion", "value": "retained in the joint for long enough to enable lubrication to be maintained by monthly or fortnightly irrigation"}, {"measurement": "time the joint would remain lubricated after an injection", "setting": "[4]; inferred from half-lives", "value": "about one month"}, {"measurement": "miscibility with propylene glycol", "setting": "[5]", "value": "totally miscible"}]}, {"molecule": "CCCCCCCCCCCCCCCC(=O)OC[C@@H](COP(=O)([O-])OCC[N+](C)(C)C)OC(=O)CCCCCCCCCCCCCCC", "note": "[D-enantiomeric alpha-DPPC, alpha-dipalmitoyl phosphatidylcholine]", "values": [{"measurement": "metabolism by endogenous phospholipases", "setting": "[1]", "value": "cannot break down"}]}]}
